Measurements reported in US11622967B2 (SUVEN LIFE SCIENCES LIMITED, priority 2018, dated 2023).
Structures can show the parent of a compound that is named as a salt.

Assays:
[1] = system: cortical histamine levels; test: Histamine modulation in prefrontal cortex, microdialysis; type: in vivo, rat
Text: (§1) Male Wistar rats (240-300 g body weight) were stereotaxically implanted with a microdialysis guide cannula in prefrontal cortex (PFC; AP: +3.2 mm, ML: −0.5 mm, DV: −1.0 mm) under isoflurane anesthesia. Co-ordinates were taken according to atlas for the rat brain (Paxinos and Watson 2004) with reference points taken from bregma and vertical from the skull. The rats were allowed to recover individually for four days in a round bottom Plexiglas bowl with free access to feed and water.
(§2) After surgical recovery of 4 days, male Wistar rats were connected to dual quartz lined two-channel liquid swivel (Instech, UK) on a counter balance lever arm, which allowed unrestricted movements of the animal. […]
Quantitation of histamine: Histamine concentrations in dialysates were quantified using post-column derivatization with o-phthalaldehyde employing HPLC coupled to fluorescence detector and analysis was carried out in the calibration range of 33-640 fmol/20 μL
(§3) Statistical analysis: All microdialysis data for histamine was plotted as percent change from mean dialysate basal concentrations with 100% defined as the average of five pre-dose values. […] Area under the curve (AUC) values for percent change in histamine levels were calculated and the statistical significance between the mean AUC value were compared against vehicle treatment using one-way ANOVA followed by Dunnett's test. […]

male C57BL/6J mice = test: Sleep and wake profile by telemetric EEG in male C57BL/6J mice; type: in vivo, mouse; conditions: 10 and 30 mg/kg, p.o., first 4 hours post dosing (FIG. 3)
Text: Mice were anesthetized with isoflurane (Baxter India Private Limited; 4% in oxygen for induction; 2% for maintenance) and were fixed into the stereotaxic frame (Stoelting, Ill., USA) to perform surgery. An incision was made to reveal bregma from which coordinates were taken. Telemetric transmitter (Model F20-EET; DSI, St. Paul, Minn., USA) was implanted into intraperitoneal cavity of the […] and leads were tunneled subcutaneously to head. One pair of flexible spring electrodes were implanted epidurally into the frontal cortex region at coordinates of AP+1.0 mm, ML±2.0 mm (Franklin and Paxinos, 20074) for recording of EEG and electrodes were fixed to the skull with dental acrylic cement (DENTALON® plus). The second set of lead wires was implanted into the neck nuchal muscle to record EMG. Incision was closed using non absorbable sutures. After a surgical recovery of minimum 2 weeks, animals were acclimatized to the handling procedures and were given a mock dosing for 3 days before the first experimental day.
On the day of study, transmitter was switched on using magnet and animals were transferred on to the receiver along with the home cage. Recording was started 3 h after the lights-on using Ponemah (Version 5.2) software. […] Recording was continued for 6 h post treatment. […]
(§4) Statistical analysis: EEG data was scored with automated standard sleep scoring protocols using Neuroscore. […]

[2] = system: cortical levels of dopamine and norepinephrine; test: Dopamine and norepinephrine modulation in prefrontal cortex, microdialysis; type: in vivo, rat; conditions: male Wistar rats, 3-30 mg/kg, p.o. (FIG. 7)
Text: as §1, §2
Quantitation of dopamine and norepinephrine: Monoamines in dialysate were derivatized with dansyl chloride and quantified using LC-MS/MS based method in calibration ranges of 0.07-15 nmol/L for all […] analytes.
as §3, with “dopamine and norepinephrine were” for “histamine was”, “four” for “five”, “neurotransmitter” for “histamine”

[3] = system: orexin-B-saporin lesioned male Wistar rats; test: Sleep and wake profile by telemetric EEG in orexin-B-saporin lesioned rats (narcolepsy model); type: in vivo, rat
Procedure: Rats were anesthetized with 4% isoflurane (Baxter India Private Limited) and maintained on 2% isoflurane for entire duration of surgery. Under isoflurane anesthesia, rats were placed into a stereotaxic instrument and received bilateral microinjections of 0.5 μL containing 490 ng of orexin-B-saporin conjugate (Advanced Targeting System, San Diego, Calif., USA) or saline solution in the lateral hypothalamus (coordinates: AP: −3.5 mm; ML: ±1.5 mm; DV: −8.7 mm).^3 Microinjections were performed using a glass micropipette (20 μm at the tip). Analgesic and antibiotic treatment were administered at the end of this procedure.
After injection of the orexin-B-Saporin, telemetric transmitter (Model F40-EET; DSI, St. Paul, Minn., USA) was implanted into intraperitoneal cavity of the rat and leads were tunneled subcutaneously to head. One pair of electrodes were implanted epidurally into the frontal cortex region using stainless steel screws (CMA Microdialysis, Stockholm, Sweden) at coordinates of AP+2.0 mm, ML±2.2 mm (Paxinos and Watson, 2004)^3 for recording of EEG and electrodes were fixed to the skull with dental acrylic cement (DENTALON® plus). The second set of lead wires was implanted into the neck nuchal muscle to record EMG. Incision was closed using non absorbable sutures. After a surgical recovery of about 3 weeks, animals were acclimatized to the handling procedures and were given a mock dosing for 3 days before the first experimental day.
On the day of study, transmitter was switched on using magnet and animals were transferred on to the receiver along with the home cage. Recording was started 1 h before lights-off using Ponemah (Version 5.2) software. […] Recording was continued for 8 h post treatment. EEG and EMG were collected as primary signals and sampled at 500 Hz. Whereas, temperature and activity were sampled at 250 Hz. The data was stored for off-line analysis using NeuroScore software (Version 3.0).
Statistical analysis: EEG data was scored with automated standard sleep scoring protocols using Neuroscore. Rodent EEG and EMG data was manually classified into one of three sleep/wake states: awake, REM (Rapid eye movement/Paradoxical sleep), or NREM (Non-rapid eye movement/slow wave sleep) according to visual analysis of EEG frequency and amplitude characteristics and EMG activity using 10 s epochs. Waking activity was defined as relatively low-amplitude EEG activity with low power in the low-frequency bands, accompanied by moderate to high level EMG activity. NREM was defined as generally high-amplitude EEG activity with greater power in the low-frequency bands from 0.5-4 Hz, accompanied by minimal EMG activity. REM sleep was characterized by moderate and constant amplitude EEG activity focused in the θ (6-9 Hz) range with no (or only sporadic) EMG activity. […]

male Wistar rats = test: Sleep and wake profile by telemetric EEG in male Wistar rats; type: in vivo, rat; conditions: 10 and 30 mg/kg, p.o., first 4 hours post dosing (FIG. 2)
Text: Rats were anesthetized with isoflurane (Baxter India Private Limited; 4% in oxygen for induction; 2% for maintenance) and were fixed into the stereotaxic frame (Stoelting, Ill., USA) to perform surgery. An incision was made to reveal bregma from which coordinates were taken. Telemetric transmitter (Model F40-EET; DSI, St. Paul, Minn., USA) was implanted into intraperitoneal cavity of the rat and leads were tunneled subcutaneously to head. One pair of electrodes were implanted epidurally into the frontal cortex region using stainless steel screws (CMA Microdialysis, Stockholm, Sweden) at coordinates of AP+2.0 mm, ML±2.2 mm (Paxinos and Watson, 2004) for recording of EEG and electrodes were fixed to the skull with dental acrylic cement (DENTALON® plus). The second set of lead wires was implanted into the neck nuchal muscle to record electromyogram (EMG). Incision was closed using non absorbable sutures. After a surgical recovery of minimum 2 weeks, animals were acclimatized to the handling procedures and were given a mock dosing for 3 days before the first experimental day.
On the day of study, transmitter was switched on using magnet and animals were transferred on to the receiver along with the home cage. […]
as §4

[4] = target: histamine-3 receptor (in-vivo) (Rattus norvegicus (Rat), UniProt Q9QYN8); test: (R)-α-methylhistamine induced dipsogenia assay; conditions: rats, oral, RAMH 2.5 mg/kg s.c.
Sequence of histamine-3 receptor (in-vivo) (Q9QYN8 whole entry): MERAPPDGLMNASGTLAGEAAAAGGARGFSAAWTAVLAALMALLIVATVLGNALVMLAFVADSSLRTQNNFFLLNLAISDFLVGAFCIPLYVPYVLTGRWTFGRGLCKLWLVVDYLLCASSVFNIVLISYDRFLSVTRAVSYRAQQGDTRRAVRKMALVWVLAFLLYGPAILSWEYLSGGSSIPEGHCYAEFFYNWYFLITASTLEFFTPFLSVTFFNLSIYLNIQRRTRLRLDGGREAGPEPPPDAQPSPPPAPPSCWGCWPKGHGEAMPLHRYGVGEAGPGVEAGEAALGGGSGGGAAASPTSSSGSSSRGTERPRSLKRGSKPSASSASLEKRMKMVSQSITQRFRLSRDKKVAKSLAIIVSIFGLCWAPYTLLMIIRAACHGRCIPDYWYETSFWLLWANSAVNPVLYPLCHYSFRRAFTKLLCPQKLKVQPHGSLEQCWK
Procedure: The experiment consisted of 3 days. The animals were individually housed in their home cages. 24 h water consumption was recorded for 2 days. Rats were randomized according to average of 2 days water consumption. […] Statistical analysis: Data was compared and assessed by one-way ANOVA followed by Dunnett's post hoc test by using graph pad prism software package.

SMILES: O=C(CN1CCOCC1)Nc1ccc(OC2CCN(C3CCC3)CC2)cc1 [SUVN-G3031, N-[4-(1-Cyclobutylpiperidin-4-yloxy)phenyl]-2-(morpholin-4-yl)acetamidedihydrochloride]
- mean AUC of percent change in histamine levels compared to vehicle ([1]; male Wistar rats, 0.3, 1 and 10 mg/kg, p.o. (FIG. 6)): statistically significant
- cortical histamine levels ([1]; male Wistar rats, 0.3-10 mg/kg, p.o.): significant increase
- time spent in wake period compared to vehicle (male C57BL/6J mice): significant increase
- cortical levels of dopamine [2]: significant increase
- cortical levels of norepinephrine [2]: significant increase
- cataplectic (direct transition of wake to REM) episodes ([3]; orexin-B-saporin lesioned rats (FIG. 5)): decreased
- wake period compared to vehicle ([3]; orexin-B-saporin lesioned rats, first 4 hours post dosing (FIG. 4a)): significant increase
- REM sleep ([3]; orexin-B-saporin lesioned rats, first 4 hours post dosing (FIG. 4b)): significant decrease
- NREM sleep ([3]; orexin-B-saporin lesioned rats, first 4 hours post dosing (FIG. 4c)): no effect
- time spent in wake period compared to vehicle (male Wistar rats): significantly increased
- effect on (R)-α-methylhistamine induced dipsogenia (water consumption) ([4]; at 60 min (FIG. 1a)): blocked
- effect on (R)-α-methylhistamine induced dipsogenia (water consumption) ([4]; at 120 min (FIG. 1b)): blocked
